Test [1] deals with T1, β5 subunit of the human immunoproteasome (IPS) (Homo sapiens, UniProt P28062).
T1 construct: purchased Boston Biochem E-370
Kind of test: β5 inhibition assay, human immunoproteasome (Suc-LLVY-AMC). As to conditions: IC50 class, Suc-LLVY-AMC substrate. It is filed as biochemical. The method, boiled down:
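Human immunoproteasome (1 nM final) was preincubated 10 min at RT with compound in 100 mM HEPES pH 7.5, 50 mM NaCl, 0.02% SDS, 1 mM DTT. Suc-LLVY-AMC (22.6 μM final) was then added for 4 h at RT in the dark. After stopping with 1 μM bortezomib, AMC fluorescence was read (ex 355/em 460 nm).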

In test [2] the test system is HT-29 cells. Briefly: CellTiter-Glo luminescent cell viability assay with HT-29 cells (72h incubation). It is filed as cell-based, human. Particulars: Homo sapiens, HT-29, HT29 cells, read-out: CTG HT29. The method, boiled down: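 400 cells per well in DMEM/10% FCS were dosed after 24 h and kept 72 h at 37 °C, 5% CO2. ATP-based luminescence (CellTiter-Glo) normalized to DMSO and 10 μM staurosporine controls; IC50 by dose-response fit.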
For orientation: In ATP-based viability assays light output follows the ATP content of the culture.

For the compound `Cc1ccc2cc1CNC(=O)[C@H](CCc1ccccc1)NC(=O)[C@@H](NC(=O)OCc1ccccc1)CC(=O)N1CCCC(CCO2)C1` (stereo partly drawn) [Compound 7, benzyl ((9S,12S)-5^4-methyl-8,11,14-trioxo-9-phenethyl-4-oxa-7,10-diaza-1(3,1)-piperidina-5(1,3)-benzenacyclotetradecaphane-12-yl)carbamate], the IC50 in test [1] and in test [2] was less than 100 nM in each case.
As for `Cc1ccc2cc1CNC(=O)C(CCc1cnccn1)NC(=O)[C@@H](NC(=O)Cc1ccc(N)cc1F)CC(=O)N1CCCC(CCO2)C1` (stereo partly drawn) [Compound 372, 2-(4-amino-2-fluorophenyl)-N-((9S,12S)-5^4-methyl-8,11,14-trioxo-9-(2-(pyrazin-2-yl)ethyl)-4-oxa-7,10-diaza-1(3,1)-piperidina-5(1,3)-benzenacyclotetradecaphane-12-yl) acetamide], the IC50 in test [1] and in test [2] was less than 100 nM each time.
`Cc1ccc2cc1CNC(=O)C(CCc1cnc3cccnc3c1)NC(=O)[C@@H](NC(=O)OCc1ccccc1)CC(=O)N1CCCC(CCO2)C1` (stereo partly drawn) [Compound 511, benzyl ((12S)-9-(2-(1,5-naphthyridin-3-yl)ethyl)-5^4-methyl-8,11,14-trioxo-4-oxa-7,10-diaza-1(3,1)-piperidina-5(1,3)-benzenacyclotetradecaphane-12-yl)carbamate]: the IC50 in test [1] and in test [2] was less than 100 nM each time.
For `Cc1ccc2cc1CNC(=O)C(CCc1ccccc1)NC(=O)[C@@H](NC(=O)OCc1ccccc1)CC(=O)N1CCCC(CCO2)C1` (stereo partly drawn) [Compound 503, benzyl ((12S)-9-phenethyl-5^4-methyl-8,11,14-trioxo-4-oxa-7,10-diaza-1(3,1)-piperidina-5(1,3)-benzenacyclotetradecaphane-12-yl)carbamate], the IC50 in test [1] and in test [2] was less than 100 nM each time.
As to `CC(=O)N[C@H]1CC(=O)N2CCCC(CCOc3ccc(C)c(c3)CNC(=O)C(c3cc(C)n(C)n3)NC1=O)C2` (stereo partly drawn) [Compound 561, N-((12S)-9-(1,5-dimethyl-1H-pyrazol-3-yl)-5^4-methyl-8,11,14-trioxo-4-oxa-7,10-diaza-1(3,1)-piperidina-5(1,3)-benzenacyclotetradecaphane-12-yl)acetamide], the IC50 in test [1] and in test [2] was less than 100 nM each time.
On to `Cc1ccc2cc1CNC(=O)[C@@H](CCc1ccccc1)NC(=O)[C@H](NC(=O)C(C)(C)CS)CC(=O)N1CCCC(CCO2)C1` (stereo partly drawn) [Compound 348, 3-mercapto-2,2-dimethyl-N-((9S,12S)-5^4-methyl-8,11,14-trioxo-9-phenethyl-4-oxa-7,10-diaza-1(3,1)-piperidina-5(1,3)-benzenacyclotetradecaphane-12-yl)propanamide], for which the IC50 in test [1] and in test [2] was less than 100 nM throughout.
Take `Cc1ccc2cc1CNC(=O)[C@H](CCc1ccccc1)NC(=O)[C@@H](NC(=O)CC1=NN(c3ccccc3)C(=O)C1)CC(=O)N1CCCC(CCO2)C1` (stereo partly drawn) [Compound 334, N-((9S,12S)-5^4-methyl-8,11,14-trioxo-9-phenethyl-4-oxa-7,10-diaza-1(3,1)-piperidina-5(1,3)-benzenacyclotetradecaphane-12-yl)-2-(5-oxo-1-phenyl-4,5-dihydro-1H-pyrazol-3-yl)acetamide]: the IC50 in test [1] and in test [2] was less than 100 nM in each case.
For `Cc1ccc2cc1CNC(=O)[C@H](CCc1ccccc1)NC(=O)[C@@H](NC(=O)OCc1ccccc1)CCC(=O)N1CCCC3(CC(C3)O2)C1` [Compound 301, benzyl ((7S,10S)-3^4-methyl-6,9,13-trioxo-7-phenethyl-2-oxa-5,8-diaza-14(3,1)-piperidina-3(1,3)-benzena-1(1,3)-cyclobutanatetradecaphane-10-yl)carbamate], the figures for the IC50 in test [1] and in test [2] were 500 to 1000 nM and 100 to 500 nM, respectively.
The corresponding values for `Cc1ccc2cc1CNC(=O)[C@H](CCc1ccccc1)NC(=O)[C@@H](NC(=O)Cc1ccccc1F)CC(=O)N1CCCC(CCO2)C1` (stereo partly drawn) [Compound 333, 2-(2-fluorophenyl)-N-((9S,12S)-5^4-methyl-8,11,14-trioxo-9-phenethyl-4-oxa-7,10-diaza-1(3,1)-piperidina-5(1,3)-benzenacyclotetradecaphane-12-yl)acetamide] are less than 100 nM and less than 100 nM.
The corresponding values for `Cc1ccc2cc1CNC(=O)[C@H](CCc1ccccc1)NC(=O)[C@@H](NC(=O)Cc1nc(-c3ccncc3)n[nH]1)CC(=O)N1CCCC(CCO2)C1` (stereo partly drawn) [Compound 329, N-((9S,12S)-5^4-methyl-8,11,14-trioxo-9-phenethyl-4-oxa-7,10-diaza-1(3,1)-piperidina-5(1,3)-benzenacyclotetradecaphane-12-yl)-2-(3-(pyridin-4-yl)-1H-1,2,4-triazol-5-yl)acetamide] are less than 100 nM and less than 100 nM.
The matching figures for `CC(=O)N[C@H]1CC(=O)N2CCCC(CCOc3ccc(C)c(c3)CNC(=O)C(CCc3cccnc3)NC1=O)C2` (stereo partly drawn) [Compound 549, N-((12S)-5^4-methyl-8,11,14-trioxo-9-(2-(pyridin-3-yl)ethyl)-4-oxa-7,10-diaza-1(3,1)-piperidina-5(1,3)-benzenacyclotetradecaphane-12-yl)acetamide]: less than 100 nM and less than 100 nM.
Take `CC(=O)N[C@H]1CC(=O)N2CCCC(CCOc3ccc(C)c(c3)CNC(=O)C(c3ccc4ncccc4c3)NC1=O)C2` (stereo partly drawn) [Compound 554, N-((12S)-5^4-methyl-8,11,14-trioxo-9-(quinolin-6-yl)-4-oxa-7,10-diaza-1(3,1)-piperidina-5(1,3)-benzenacyclotetradecaphane-12-yl)acetamide]: the IC50 in test [1] and in test [2] was less than 100 nM throughout.
Consider `Cc1n[nH]c(CC(=O)N[C@H]2CC(=O)N3CCCC(CCOc4ccc(C)c(c4)CNC(=O)[C@H](CCc4ccccc4)NC2=O)C3)n1` (stereo partly drawn) [Compound 332, 2-(3-methyl-1H-1,2,4-triazol-5-yl)-N-((9S,12S)-5^4-methyl-8,11,14-trioxo-9-phenethyl-4-oxa-7,10-diaza-1(3,1)-piperidina-5(1,3)-benzenacyclotetradecaphane-12-yl)acetamide], for which the IC50 in test [1] and in test [2] was less than 100 nM in each case.
With `COc1cccc(CC(=O)N[C@H]2CC(=O)N3CCCC(CCOc4ccc(C)c(c4)CNC(=O)C(c4cnn(C)c4)NC2=O)C3)c1` (stereo partly drawn) [Compound 362, 2-(3-methoxyphenyl)-N-((12S)-5^4-methyl-9-(1-methyl-1H-pyrazol-4-yl)-8,11,14-trioxo-4-oxa-7,10-diaza-1(3,1)-piperidina-5(1,3)-benzenacyclotetradecaphane-12-yl)acetamide], the IC50 in test [1] and in test [2] was less than 100 nM throughout.
For `Cc1ccc2cc1CNC(=O)C(c1cnn(C)c1)NC(=O)[C@@H](NC(=O)[C@@H](C)c1ccccc1)CC(=O)N1CCCC(CCO2)C1` (stereo partly drawn) [Compound 359, (2S)-N-((12S)-5^4-methyl-9-(1-methyl-1H-pyrazol-4-yl)-8,11,14-trioxo-4-oxa-7,10-diaza-1(3,1)-piperidina-5(1,3)-benzenacyclotetradecaphane-12-yl)-2-phenylpropanamide], the IC50 in test [1] and in test [2] was less than 100 nM in each case.
Turning to `CC(=O)N[C@H]1CC(=O)N2CCCC(CCOc3ccc(C)c(c3)CNC(=O)C(c3cn[nH]c3)NC1=O)C2` (stereo partly drawn) [Compound 562, N-((12S)-5^4-methyl-8,11,14-trioxo-9-(1H-pyrazol-4-yl)-4-oxa-7,10-diaza-1(3,1)-piperidina-5(1,3)-benzenacyclotetradecaphane-12-yl)acetamide], the IC50 in test [1] is less than 100 nM; in test [2], 100 to 500 nM.
The corresponding values for `CC(=O)N[C@H]1CC(=O)N2CCCC(CCOc3ccc(C)c(c3)CNC(=O)C(c3cc(C)sn3)NC1=O)C2` (stereo partly drawn) [Compound 556, N-((12S)-5^4-methyl-9-(5-methylisothiazol-3-yl)-8,11,14-trioxo-4-oxa-7,10-diaza-1(3,1)-piperidina-5(1,3)-benzenacyclotetradecaphane-12-yl)acetamide] are less than 100 nM and less than 100 nM.
The matching figures for `Cc1ccc2cc1CNC(=O)[C@H](CCc1ccccc1)NC(=O)[C@@H](NC(=O)CC(C)(C)C)CC(=O)N1CCCC(CCO2)C1` (stereo partly drawn) [Compound 28, 3,3-dimethyl-N-((9S,12S)-5^4-methyl-8,11,14-trioxo-9-phenethyl-4-oxa-7,10-diaza-1(3,1)-piperidina-5(1,3)-benzenacyclotetradecaphane-12-yl)butanamide]: less than 100 nM and less than 100 nM.
The corresponding values for `CC(=O)N[C@H]1CC(=O)N2CCCC(CCOc3ccc(C)c(c3)CNC(=O)C(c3coc(C)n3)NC1=O)C2` (stereo partly drawn) [Compound 553, N-((12S)-5^4-methyl-9-(2-methyloxazol-4-yl)-8,11,14-trioxo-4-oxa-7,10-diaza-1(3,1)-piperidina-5(1,3)-benzenacyclotetradecaphane-12-yl)acetamide] are less than 100 nM and less than 100 nM.
As for `Cc1ccc2cc1CNC(=O)C(CCc1ccncc1)NC(=O)[C@@H](NC(=O)OCc1ccccc1)CC(=O)N1CCCC(CCO2)C1` (stereo partly drawn) [Compound 336, benzyl ((12S)-5^4-methyl-8,11,14-trioxo-9-(2-(pyridin-4-yl)ethyl)-4-oxa-7,10-diaza-1(3,1)-piperidina-5(1,3)-benzenacyclotetradecaphane-12-yl)carbamate], the IC50 in test [1] and in test [2] was less than 100 nM in each case.
On to `Cc1ccc2cc1CNC(=O)[C@H](CCc1ccccc1)NC(=O)[C@@H](NC(=O)Cc1csc(N)n1)CC(=O)N1CCCC(CCO2)C1` (stereo partly drawn) [Compound 302, 2-(2-aminothiazol-4-yl)-N-((9S,12S)-5^4-methyl-8,11,14-trioxo-9-phenethyl-4-oxa-7,10-diaza-1(3,1)-piperidina-5(1,3)-benzenacyclotetradecaphane-12-yl)acetamide], for which the IC50 in test [1] and in test [2] was less than 100 nM throughout.
